Experimental data published in PMC11277489, “Novel Piperazine Derivatives of Vindoline as Anticancer Agents” (International Journal of Molecular Sciences, 2024).
Where two headings read alike, the source gives them in different places.

Assays:
Assay type in all cases: cell-based
KM12 = experiment: NCI60 five-dose screen, Colon Cancer; conditions: Homo sapiens; KM12, Colon Cancer; five-dose screen; read-out: GI50
SN12C = experiment: NCI60 five-dose screen, Renal Cancer; conditions: Homo sapiens, Renal Cancer, five-dose screen, read-out: GI50
COLO 205 = experiment: NCI60 five-dose screen, Colon Cancer; conditions: Homo sapiens; COLO 205, Colon Cancer; five-dose screen; read-out: GI50
OVCAR-4 = experiment: NCI60 five-dose screen, Ovarian Cancer; conditions: Homo sapiens; OVCAR-4, Ovarian Cancer; five-dose screen; read-out: GI50
MDA-MB-468 [1] = experiment: NCI60 one-dose screen (10 μM), Breast Cancer; conditions: Homo sapiens; 10 μM; MDA-MB-468, Breast Cancer; read-out: Growth percent rate
NCI-H322M = experiment: NCI60 five-dose screen, Non-small Cell Lung Cancer; conditions: Homo sapiens, Non-small Cell Lung Cancer, five-dose screen, read-out: GI50
NCI/ADR-RES = experiment: NCI60 one-dose screen (10 μM), Ovarian Cancer; conditions: Homo sapiens, 10 μM, Ovarian Cancer, read-out: Growth percent rate
DU-145 = experiment: NCI60 five-dose screen, Prostate Cancer; conditions: Homo sapiens; DU-145, Prostate Cancer; five-dose screen; read-out: GI50
RPMI-8226 [2] = experiment: NCI60 one-dose screen (10 μM), Leukemia; conditions: Homo sapiens; 10 μM; RPMI-8226, Leukemia; read-out: Growth percent rate
PC-3 = experiment: NCI60 one-dose screen (10 μM), Prostate Cancer; conditions: Homo sapiens; 10 μM; PC-3, Prostate Cancer; read-out: Growth percent rate
MDA-MB231ATCC = experiment: NCI60 five-dose screen, Breast Cancer; conditions: Homo sapiens, MDA-MB-231; MDA-MB231ATCC, Breast Cancer; five-dose screen; read-out: GI50
[3] = tested on: 60 human tumor cell lines (NCI60); experiment: NCI60 five-dose screen, whole panel and sub-panel means; conditions: read-out: GI50 Mean
SNB-19 = experiment: NCI60 five-dose screen, CNS Cancer; conditions: Homo sapiens; SNB-19, CNS Cancer; five-dose screen; read-out: GI50
RPMI-8226 [4] = experiment: NCI60 five-dose screen, Leukemia; conditions: Homo sapiens; RPMI-8226, Leukemia; five-dose screen; read-out: GI50
HS 578T = experiment: NCI60 one-dose screen (10 μM), Breast Cancer; conditions: Homo sapiens; 10 μM; HS 578T, Breast Cancer; read-out: Growth percent rate
UACC-62 [5] = experiment: NCI60 one-dose screen (10 μM), Melanoma; conditions: Homo sapiens; 10 μM; UACC-62, Melanoma; read-out: Growth percent rate
LOX IMVI = experiment: NCI60 five-dose screen, Melanoma; conditions: Homo sapiens, Melanoma, five-dose screen, read-out: GI50
A498 = experiment: NCI60 one-dose screen (10 μM), Renal Cancer; conditions: Homo sapiens; 10 μM; A498, Renal Cancer; read-out: Growth percent rate
U251 [6] = experiment: NCI60 five-dose screen, CNS Cancer; conditions: Homo sapiens, U-251; U251, CNS Cancer; five-dose screen; read-out: GI50
HOP-92 [7] = experiment: NCI60 five-dose screen, Non-small Cell Lung Cancer; conditions: Homo sapiens; HOP-92, Non-small Cell Lung Cancer; five-dose screen; read-out: GI50
HCT-15 = experiment: NCI60 five-dose screen, Colon Cancer; conditions: Homo sapiens; HCT-15, Colon Cancer; five-dose screen; read-out: GI50
U251 [8] = experiment: NCI60 one-dose screen (10 μM), CNS Cancer; conditions: Homo sapiens, U-251; 10 μM; U251, CNS Cancer; read-out: Growth percent rate
TK-10 = experiment: NCI60 one-dose screen (10 μM), Renal Cancer; conditions: Homo sapiens; 10 μM; TK-10, Renal Cancer; read-out: Growth percent rate
UACC-257 = experiment: NCI60 five-dose screen, Melanoma; conditions: Homo sapiens; UACC-257, Melanoma; five-dose screen; read-out: GI50
NCI-H226 = experiment: NCI60 one-dose screen (10 μM), Non-small Cell Lung Cancer; conditions: Homo sapiens; 10 μM; NCI-H226, Non-small Cell Lung Cancer; read-out: Growth percent rate
OVCAR-3 = experiment: NCI60 five-dose screen, Ovarian Cancer; conditions: Homo sapiens; OVCAR-3, Ovarian Cancer; five-dose screen; read-out: GI50
MCF7 = experiment: NCI60 five-dose screen, Breast Cancer; conditions: Homo sapiens; MCF7, Breast Cancer; five-dose screen; read-out: GI50
CAKI-1 = experiment: NCI60 five-dose screen, Renal Cancer; conditions: Homo sapiens; CAKI-1, Renal Cancer; five-dose screen; read-out: GI50
UACC-62 [9] = experiment: NCI60 five-dose screen, Melanoma; conditions: Homo sapiens; UACC-62, Melanoma; five-dose screen; read-out: GI50
SK-OV-3 [10] = experiment: NCI60 one-dose screen (10 μM), Ovarian Cancer; conditions: Homo sapiens; 10 μM; SK-OV-3, Ovarian Cancer; read-out: Growth percent rate
OVCAR-8 = experiment: NCI60 five-dose screen, Ovarian Cancer; conditions: Homo sapiens; OVCAR-8, Ovarian Cancer; five-dose screen; read-out: GI50
SK-OV-3 [11] = experiment: NCI60 five-dose screen, Ovarian Cancer; conditions: Homo sapiens; SK-OV-3, Ovarian Cancer; five-dose screen; read-out: GI50
ACHN = experiment: NCI60 five-dose screen, Renal Cancer; conditions: Homo sapiens, Renal Cancer, five-dose screen, read-out: GI50
MDA-MB-468 [12] = experiment: NCI60 five-dose screen, Breast Cancer; conditions: Homo sapiens; MDA-MB-468, Breast Cancer; five-dose screen; read-out: GI50
HOP-62 = experiment: NCI60 one-dose screen (10 μM), Non-small Cell Lung Cancer; conditions: Homo sapiens; 10 μM; HOP-62, Non-small Cell Lung Cancer; read-out: Growth percent rate
BT-549 = experiment: NCI60 one-dose screen (10 μM), Breast Cancer; conditions: Homo sapiens; 10 μM; BT-549, Breast Cancer; read-out: Growth percent rate
M14 = experiment: NCI60 five-dose screen, Melanoma; conditions: Homo sapiens; M14, Melanoma; five-dose screen; read-out: GI50
HOP-92 [13] = experiment: NCI60 one-dose screen (10 μM), Non-small Cell Lung Cancer; conditions: Homo sapiens; 10 μM; HOP-92, Non-small Cell Lung Cancer; read-out: Growth percent rate

## CC[C@]12C=CCN3CC[C@@]4(c5ccc(OC)cc5N(C)[C@H]4[C@@](O)(C(=O)OC)[C@@H]1OC(=O)CCC(=O)N1CCN(C(c4ccc(F)cc4)c4ccc(F)cc4)CC1)[C@@H]32 [Compound 31]
KM12
  GI50: 2360 nM
SN12C
  GI50: 1470 nM
COLO 205
  GI50: 2820 nM
OVCAR-4
  GI50: 1620 nM
MDA-MB-468 [1]
  activity at 10 µM: -69.1%
NCI-H322M
  GI50: 4990 nM
NCI/ADR-RES
  activity at 10 µM: -62.1%
DU-145
  GI50: 2670 nM
RPMI-8226 [2]
  activity at 10 µM: -98.1%
PC-3
  activity at 10 µM: -28.5%
MDA-MB231ATCC
  GI50: 3020 nM
[3]; Homo sapiens, 60 cell, mean over all 60 cell lines
  GI50: < 4000 nM
[3]; Homo sapiens, mean over Breast Cancer panel
  GI50: 2000 nM
[3]; Homo sapiens, mean over CNS Cancer panel
  GI50: 2600 nM
[3]; Homo sapiens, mean over Colon Cancer panel
  GI50: 2230 nM
[3]; Homo sapiens, mean over Leukemia panel
  GI50: 1890 nM
[3]; Homo sapiens, mean over Melanoma panel
  GI50: 2400 nM
[3]; Homo sapiens, mean over Non-small Cell Lung Cancer panel
  GI50: 2590 nM
[3]; Homo sapiens, mean over Ovarian Cancer panel
  GI50: 2150 nM
[3]; Homo sapiens, mean over Prostate Cancer panel
  GI50: 2270 nM
[3]; Homo sapiens, mean over Renal Cancer panel
  GI50: 2330 nM
[3]; mean over all 60 cell lines
  GI50: 2290 nM
SNB-19
  GI50: 3580 nM
RPMI-8226 [4]
  GI50: 1420 nM
HS 578T
  activity at 10 µM: -32.6%
UACC-62 [5]
  activity at 10 µM: -84.3%
LOX IMVI
  GI50: 1800 nM
A498
  activity at 10 µM: -61.6%
U251 [6]
  GI50: 2780 nM
HOP-92 [7]
  GI50: 1990 nM
HCT-15
  GI50: 2450 nM
U251 [8]
  activity at 10 µM: -15.1%
TK-10
  activity at 10 µM: -32.1%
UACC-257
  GI50: 2700 nM
NCI-H226
  activity at 10 µM: -32.4%
OVCAR-3
  GI50: 1600 nM
MCF7
  GI50: 1740 nM
CAKI-1
  GI50: 3070 nM
UACC-62 [9]
  GI50: 1920 nM
SK-OV-3 [10]
  activity at 10 µM: -15.6%
OVCAR-8
  GI50: 3180 nM
SK-OV-3 [11]
  GI50: 2020 nM
ACHN
  GI50: 2060 nM
MDA-MB-468 [12]
  GI50: 1200 nM
HOP-62
  activity at 10 µM: -57%
BT-549
  activity at 10 µM: -60.6%
M14
  GI50: 3550 nM
HOP-92 [13]
  activity at 10 µM: -44.9%
